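At the GI50, growth is halved. At the TGI there is no net growth.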
What was measured:
Test in all cases: NCI anticancer screen, dose series, 384-well format
COLO 205 colon = system: COLO 205 colon
SN12C renal = system: SN12C renal
NCI-H322M lung = system: NCI-H322M lung
M14 melanoma = system: M14 melanoma
LOX IMVI melanoma = system: LOX IMVI melanoma
IGROV1 ovarian = system: IGROV1 ovarian
NCI-H522 lung = system: NCI-H522 lung
HOP-62 NSCLC = system: HOP-62 NSCLC
SK-OV-3 ovarian = system: SK-OV-3 ovarian
SF-539 CNS = system: SF-539 CNS
UO-31 renal = system: UO-31 renal
RXF 393 renal = system: RXF 393 renal
HCT-116 colon = system: HCT-116 colon
SF-295 CNS = system: SF-295 CNS
MDA-MB-435 melanoma = system: MDA-MB-435 melanoma
KM12 colon = system: KM12 colon
HOP-92 NSCLC = system: HOP-92 NSCLC
SW-620 colon = system: SW-620 colon
MDA-MB-231 breast = system: MDA-MB-231 breast
MDA-MB-468 breast = system: MDA-MB-468 breast
U251 glioblastoma = system: U251 glioblastoma
OVCAR-4 ovarian = system: OVCAR-4 ovarian
OVCAR-8 ovarian = system: OVCAR-8 ovarian
MOLT-4 leukemia = system: MOLT-4 leukemia
SNB-19 CNS = system: SNB-19 CNS
HT29 colon = system: HT29 colon
A498 renal = system: A498 renal
A549 NSCLC = system: A549 NSCLC
OVCAR-5 ovarian = system: OVCAR-5 ovarian
DU-145 prostate = system: DU-145 prostate
MALME-3M melanoma = system: MALME-3M melanoma
SNB-75 CNS = system: SNB-75 CNS
T-47D breast = system: T-47D breast
PC-3 prostate = system: PC-3 prostate
ACHN renal = system: ACHN renal
CAKI-1 renal = system: CAKI-1 renal
SK-MEL-5 melanoma = system: SK-MEL-5 melanoma
NCI-H460 NSCLC = system: NCI-H460 NSCLC
786-0 renal = system: 786-0 renal
SF-268 CNS = system: SF-268 CNS
OVCAR-3 ovarian = system: OVCAR-3 ovarian
UACC-62 melanoma = system: UACC-62 melanoma
HL-60(TB) leukemia = system: HL-60(TB) leukemia
EKVX NSCLC = system: EKVX NSCLC
HCC-2998 colon = system: HCC-2998 colon
TK-10 renal = system: TK-10 renal
NCI-H226 lung = system: NCI-H226 lung
HS 578T breast = system: HS 578T breast
K-562 leukemia = system: K-562 leukemia
NCI/ADR-RES ovarian = system: NCI/ADR-RES ovarian
HCT-15 colon = system: HCT-15 colon
BT-549 breast = system: BT-549 breast
CCRF-CEM leukemia = system: CCRF-CEM leukemia
UACC-257 melanoma = system: UACC-257 melanoma
NCI-H23 lung = system: NCI-H23 lung
SK-MEL-2 melanoma = system: SK-MEL-2 melanoma
SK-MEL-28 melanoma = system: SK-MEL-28 melanoma
MCF7 breast = system: MCF7 breast
SR leukemia = system: SR leukemia
RPMI-8226 leukemia = system: RPMI-8226 leukemia

CC(=O)Nc1cccc(-n2c(=O)n(C3CC3)c(=O)c3c(Nc4ccc(I)cc4F)n(C)c(=O)c(C)c32)c1
GI50 (COLO 205 colon): < 0.01 µM
TGI (COLO 205 colon): < 0.0106 µM
GI50 (SN12C renal): 0.537 µM
TGI (SN12C renal): 46.4 µM
GI50 (NCI-H322M lung): < 0.0237 µM
TGI (NCI-H322M lung): 3.6 µM
GI50 (M14 melanoma): < 0.01 µM
TGI (M14 melanoma): < 0.01 µM
GI50 (LOX IMVI melanoma): < 0.01 µM
TGI (LOX IMVI melanoma): 0.0443 µM
GI50 (IGROV1 ovarian): < 0.01 µM
TGI (IGROV1 ovarian): 5.48 µM
GI50 (NCI-H522 lung): 4.33 µM
TGI (NCI-H522 lung): 37.4 µM
GI50 (HOP-62 NSCLC): < 0.0113 µM
TGI (HOP-62 NSCLC): 21.2 µM
TGI (SK-OV-3 ovarian): > 41.1 µM
GI50 (SF-539 CNS): 0.0819 µM
TGI (SF-539 CNS): 11 µM
GI50 (UO-31 renal): 0.0541 µM
TGI (UO-31 renal): 11.3 µM
TGI (RXF 393 renal): 1.44 µM
GI50 (HCT-116 colon): < 0.01 µM
TGI (HCT-116 colon): 0.0787 µM
GI50 (SF-295 CNS): 23.1 µM
TGI (SF-295 CNS): > 86.2 µM
GI50 (MDA-MB-435 melanoma): < 0.01 µM
TGI (MDA-MB-435 melanoma): 16.5 µM
GI50 (KM12 colon): < 0.01 µM
TGI (KM12 colon): 26.1 µM
GI50 (HOP-92 NSCLC): < 0.0172 µM
TGI (HOP-92 NSCLC): 0.123 µM
GI50 (SW-620 colon): < 0.01 µM
TGI (SW-620 colon): > 36 µM
GI50 (MDA-MB-231 breast): < 0.0489 µM
TGI (MDA-MB-231 breast): 1.99 µM
GI50 (MDA-MB-468 breast): 5.03 µM
TGI (MDA-MB-468 breast): 14.2 µM
GI50 (U251 glioblastoma): 0.076 µM
TGI (U251 glioblastoma): 23.2 µM
GI50 (OVCAR-4 ovarian): 4.87 µM
TGI (OVCAR-4 ovarian): 26.9 µM
GI50 (OVCAR-8 ovarian): 2.88 µM
TGI (OVCAR-8 ovarian): 36.1 µM
GI50 (MOLT-4 leukemia): 3.11 µM
TGI (MOLT-4 leukemia): 12.3 µM
TGI (SNB-19 CNS): > 62.1 µM
GI50 (HT29 colon): < 0.01 µM
TGI (HT29 colon): 15 µM
GI50 (A498 renal): 0.08 µM
TGI (A498 renal): 4.52 µM
GI50 (A549 NSCLC): 0.0103 µM
TGI (A549 NSCLC): 4.68 µM
GI50 (OVCAR-5 ovarian): < 0.01 µM
TGI (OVCAR-5 ovarian): 25.5 µM
GI50 (DU-145 prostate): 1.96 µM
TGI (DU-145 prostate): 44.4 µM
GI50 (MALME-3M melanoma): < 0.01 µM
TGI (MALME-3M melanoma): < 0.01 µM
GI50 (SNB-75 CNS): 0.115 µM
TGI (SNB-75 CNS): 5.76 µM
GI50 (T-47D breast): > 25.1 µM
TGI (T-47D breast): > 100 µM
GI50 (PC-3 prostate): > 35.7 µM
TGI (PC-3 prostate): > 59.5 µM
GI50 (ACHN renal): 0.576 µM
TGI (ACHN renal): 20.4 µM
GI50 (CAKI-1 renal): < 0.026 µM
TGI (CAKI-1 renal): 12 µM
GI50 (SK-MEL-5 melanoma): < 0.01 µM
TGI (SK-MEL-5 melanoma): < 0.01 µM
GI50 (NCI-H460 NSCLC): 3.88 µM
TGI (NCI-H460 NSCLC): > 40.9 µM
GI50 ([…]-0 renal): 1.2 µM
TGI (786-0 renal): 20.1 µM
GI50 (SF-268 CNS): 7.21 µM
TGI (SF-268 CNS): > 56.4 µM
GI50 (OVCAR-3 ovarian): 4.65 µM
TGI (OVCAR-3 ovarian): 21.4 µM
GI50 (UACC-62 melanoma): < 0.01 µM
GI50 (HL-60(TB) leukemia): < 0.01 µM
TGI (HL-60(TB) leukemia): < 0.01 µM
GI50 (EKVX NSCLC): 0.309 µM
TGI (EKVX NSCLC): 23.7 µM
GI50 (HCC-2998 colon): < 0.01 µM
TGI (HCC-2998 colon): < 0.0119 µM
TGI (TK-10 renal): > 45.6 µM
GI50 (NCI-H226 lung): < 0.0432 µM
TGI (NCI-H226 lung): 8.93 µM
GI50 (HS 578T breast): 1.5 µM
TGI (HS 578T breast): 24.9 µM
GI50 (K-562 leukemia): 0.0265 µM
TGI (K-562 leukemia): 11.8 µM
GI50 (NCI/ADR-RES ovarian): 1.32 µM
TGI (NCI/ADR-RES ovarian): 8.35 µM
GI50 (HCT-15 colon): 0.238 µM
TGI (HCT-15 colon): 14.7 µM
GI50 (BT-549 breast): 0.846 µM
TGI (BT-549 breast): 18.3 µM
GI50 (CCRF-CEM leukemia): 3.32 µM
TGI (CCRF-CEM leukemia): 12.8 µM
GI50 (UACC-257 melanoma): < 0.01 µM
TGI (UACC-257 melanoma): < 0.01 µM
GI50 (NCI-H23 lung): < 0.01 µM
TGI (NCI-H23 lung): 0.137 µM
GI50 (SK-MEL-2 melanoma): < 0.01 µM
TGI (SK-MEL-2 melanoma): < 0.01 µM
GI50 (SK-MEL-28 melanoma): < 0.01 µM
TGI (SK-MEL-28 melanoma): < 0.01 µM
GI50 (MCF7 breast): 7.68 µM
TGI (MCF7 breast): 23.6 µM
GI50 (SR leukemia): 1.1 µM
TGI (SR leukemia): 5.65 µM
GI50 (RPMI-8226 leukemia): 0.423 µM
TGI (RPMI-8226 leukemia): 4.84 µM
